Results taken from ChEMBL document CHEMBL1136998, “Bis-neonicotinoid insecticides: Observed and predicted binding interactions with the nicotinic receptor” (Bioorg Med Chem Lett, 2009).

Experiment: Displacement of [3H]IMI from Drosophila melanogaster brain nAChR
Work on `O=[N+]([O-])/N=C1/N(CCCCCCCCN2CCN(Cc3ccc(Cl)nc3)/C2=N\[N+](=O)[O-])CCN1Cc1ccc(Cl)nc1` yielded a Ki of 0.88 µM.
Work on `O=[N+]([O-])/N=C1/N(Cc2ccc(CN3CCN(Cc4ccc(Cl)nc4)/C3=N\[N+](=O)[O-])cc2)CCN1Cc1ccc(Cl)nc1` yielded a Ki of 1.18 µM.
With `O=[N+]([O-])/N=C1/N(CCCCCCCN2CCN(Cc3ccc(Cl)nc3)/C2=N\[N+](=O)[O-])CCN1Cc1ccc(Cl)nc1` the Ki was 0.14 µM.
`O=[N+]([O-])/N=C1/N(CCCCCCCCCN2CCN(Cc3ccc(Cl)nc3)/C2=N\[N+](=O)[O-])CCN1Cc1ccc(Cl)nc1` showed a Ki of 1.38 µM.
For `O=[N+]([O-])/N=C1/N(CCCCCN2CCN(Cc3ccc(Cl)nc3)/C2=N\[N+](=O)[O-])CCN1Cc1ccc(Cl)nc1`, the Ki was 5.35 µM.
Work on `O=[N+]([O-])/N=C1/N(CC/C=C\CCN2CCN(Cc3ccc(Cl)nc3)/C2=N\[N+](=O)[O-])CCN1Cc1ccc(Cl)nc1` yielded a Ki of 0.78 µM.
With `O=[N+]([O-])/N=C1/N(C/C=C/C=C/CN2CCN(Cc3ccc(Cl)nc3)/C2=N\[N+](=O)[O-])CCN1Cc1ccc(Cl)nc1` the Ki was 0.97 µM.
With `O=[N+]([O-])/N=C1/N(CC/C=C/CCN2CCN(Cc3ccc(Cl)nc3)/C2=N\[N+](=O)[O-])CCN1Cc1ccc(Cl)nc1` the Ki was 2.49 µM.
With `O=[N+]([O-])/N=C1/N(CCCCCCN2CCN(Cc3ccc(Cl)nc3)/C2=N\[N+](=O)[O-])CCN1Cc1ccc(Cl)nc1` the Ki was 0.68 µM.

Experiment: Displacement of [3H]IMI from house fly nAChR
Design: species or system Musca domestica
`O=[N+]([O-])/N=C1/N(CCCCCCCCCCN2CCN(Cc3ccc(Cl)nc3)/C2=N\[N+](=O)[O-])CCN1Cc1ccc(Cl)nc1` gave a Ki of 110 µM.
Work on `O=[N+]([O-])/N=C1\N(Cc2ccc(Cl)nc2)CCN1CN1CCN(Cc2ccc(Cl)nc2)/C1=N\[N+](=O)[O-]` yielded a Ki of 27 µM.
